Results on seven compounds are retold here after publication PMC5216056 (Nature Communications, 2017).

By EC50 is commonly meant the concentration needed to bring the measured effect to its halfway point.

Experiment [1] relates to AEA cellular uptake in U937 cells. In words: cells. The experiment is classed as cell-based, human. As to conditions: 10 µM.
The target of a further experiment is T1, Rat recombinant TRPV4 (Rattus norvegicus, UniProt Q9ERZ8).
T1 construct: expressed in transfected cells; host or cells: HEK293 (TRPV4-HEK-293, gift from HB Bradshaw, Indiana University)
T1 sequence (Q9ERZ8 whole entry): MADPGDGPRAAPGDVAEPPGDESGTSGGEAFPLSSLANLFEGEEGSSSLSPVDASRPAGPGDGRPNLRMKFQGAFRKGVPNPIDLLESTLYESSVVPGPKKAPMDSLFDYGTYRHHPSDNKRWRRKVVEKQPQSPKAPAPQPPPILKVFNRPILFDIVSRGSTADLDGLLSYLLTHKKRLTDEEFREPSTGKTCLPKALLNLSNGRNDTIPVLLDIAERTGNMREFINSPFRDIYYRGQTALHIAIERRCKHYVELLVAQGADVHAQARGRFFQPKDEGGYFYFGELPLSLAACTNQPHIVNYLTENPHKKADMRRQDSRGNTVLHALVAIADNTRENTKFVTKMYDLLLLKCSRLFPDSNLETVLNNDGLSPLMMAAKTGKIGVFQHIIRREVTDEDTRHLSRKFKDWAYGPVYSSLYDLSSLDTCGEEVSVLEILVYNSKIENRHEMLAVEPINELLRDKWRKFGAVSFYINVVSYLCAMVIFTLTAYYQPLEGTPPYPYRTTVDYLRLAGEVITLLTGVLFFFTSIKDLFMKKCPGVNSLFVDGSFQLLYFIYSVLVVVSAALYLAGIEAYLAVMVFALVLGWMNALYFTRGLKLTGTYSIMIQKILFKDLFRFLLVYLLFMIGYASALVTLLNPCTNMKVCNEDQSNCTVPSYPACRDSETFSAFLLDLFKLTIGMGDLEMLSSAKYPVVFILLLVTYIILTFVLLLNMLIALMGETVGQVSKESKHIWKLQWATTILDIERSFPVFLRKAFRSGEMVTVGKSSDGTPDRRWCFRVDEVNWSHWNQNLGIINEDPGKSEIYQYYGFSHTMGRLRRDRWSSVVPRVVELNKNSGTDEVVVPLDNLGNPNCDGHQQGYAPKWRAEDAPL
The experiment can be described thus: cell-based. Type of experiment: cell-based.

The target in another experiment is T2, Rat recombinant TRPV3 (Rattus norvegicus, UniProt Q4QYD9).
T2 construct: expressed in transfected cells; host or cells: HEK293 (TRPV3-HEK-293, gift from HB Bradshaw, Indiana University)
T2 sequence (Q4QYD9 1-791): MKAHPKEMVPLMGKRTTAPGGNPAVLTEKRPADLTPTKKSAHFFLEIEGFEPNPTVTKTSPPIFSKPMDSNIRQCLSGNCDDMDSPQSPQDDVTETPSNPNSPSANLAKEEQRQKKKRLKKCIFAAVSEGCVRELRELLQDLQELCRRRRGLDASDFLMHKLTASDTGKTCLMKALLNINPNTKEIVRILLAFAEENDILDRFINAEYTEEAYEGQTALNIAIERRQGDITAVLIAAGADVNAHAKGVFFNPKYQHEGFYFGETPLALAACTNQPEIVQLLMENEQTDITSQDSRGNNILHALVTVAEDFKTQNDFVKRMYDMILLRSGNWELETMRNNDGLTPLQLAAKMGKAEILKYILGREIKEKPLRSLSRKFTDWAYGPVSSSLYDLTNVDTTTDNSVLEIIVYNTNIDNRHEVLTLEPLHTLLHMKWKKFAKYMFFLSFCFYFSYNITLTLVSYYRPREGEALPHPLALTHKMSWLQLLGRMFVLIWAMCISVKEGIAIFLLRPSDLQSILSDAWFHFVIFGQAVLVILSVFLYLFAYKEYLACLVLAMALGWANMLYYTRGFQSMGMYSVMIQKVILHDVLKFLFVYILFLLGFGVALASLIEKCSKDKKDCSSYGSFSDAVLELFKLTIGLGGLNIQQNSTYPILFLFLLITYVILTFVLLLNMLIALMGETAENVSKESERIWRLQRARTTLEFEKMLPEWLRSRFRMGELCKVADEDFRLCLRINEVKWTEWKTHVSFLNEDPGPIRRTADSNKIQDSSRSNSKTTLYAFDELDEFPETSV
The experiment can be described thus: cell-based. Type of experiment: cell-based.

The target in the next experiment is T3, Rat recombinant TRPV2 (Rattus norvegicus, UniProt Q9WUD2).
T3 construct: expressed in transfected cells; host or cells: HEK293 (plasmid a gift from HB Bradshaw, Indiana University)
T3 sequence (Q9WUD2 1-761): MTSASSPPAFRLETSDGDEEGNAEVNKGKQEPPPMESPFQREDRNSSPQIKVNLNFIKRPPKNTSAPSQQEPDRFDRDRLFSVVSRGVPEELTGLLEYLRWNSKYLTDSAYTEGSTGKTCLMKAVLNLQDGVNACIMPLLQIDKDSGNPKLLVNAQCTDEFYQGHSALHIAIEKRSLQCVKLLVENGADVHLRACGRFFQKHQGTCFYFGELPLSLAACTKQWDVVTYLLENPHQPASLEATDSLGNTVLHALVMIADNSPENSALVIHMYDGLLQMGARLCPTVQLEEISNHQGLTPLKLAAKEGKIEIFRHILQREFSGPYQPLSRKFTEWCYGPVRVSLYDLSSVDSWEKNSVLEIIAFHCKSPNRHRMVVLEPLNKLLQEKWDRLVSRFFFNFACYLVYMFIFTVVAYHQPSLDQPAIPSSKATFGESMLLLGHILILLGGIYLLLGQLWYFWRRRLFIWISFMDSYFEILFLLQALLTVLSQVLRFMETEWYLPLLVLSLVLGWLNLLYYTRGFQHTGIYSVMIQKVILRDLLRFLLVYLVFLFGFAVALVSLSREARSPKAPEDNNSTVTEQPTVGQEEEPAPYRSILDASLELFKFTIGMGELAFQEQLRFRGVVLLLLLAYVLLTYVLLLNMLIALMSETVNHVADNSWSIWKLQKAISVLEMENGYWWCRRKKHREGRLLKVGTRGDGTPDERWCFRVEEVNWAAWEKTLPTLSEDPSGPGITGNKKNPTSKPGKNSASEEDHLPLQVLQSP
The experiment can be described thus: cell-based. The experiment is classed as cell-based.

In another experiment the target is T4, human NAPE-PLD (Homo sapiens, UniProt Q6IQ20).
T4 construct: Full length human cDNA NAPE-PLD was obtained from Natsuo Ueda; expressed in transfected cells; host or cells: HEK293T (transient), membrane fraction
T4 sequence (Q6IQ20 whole entry): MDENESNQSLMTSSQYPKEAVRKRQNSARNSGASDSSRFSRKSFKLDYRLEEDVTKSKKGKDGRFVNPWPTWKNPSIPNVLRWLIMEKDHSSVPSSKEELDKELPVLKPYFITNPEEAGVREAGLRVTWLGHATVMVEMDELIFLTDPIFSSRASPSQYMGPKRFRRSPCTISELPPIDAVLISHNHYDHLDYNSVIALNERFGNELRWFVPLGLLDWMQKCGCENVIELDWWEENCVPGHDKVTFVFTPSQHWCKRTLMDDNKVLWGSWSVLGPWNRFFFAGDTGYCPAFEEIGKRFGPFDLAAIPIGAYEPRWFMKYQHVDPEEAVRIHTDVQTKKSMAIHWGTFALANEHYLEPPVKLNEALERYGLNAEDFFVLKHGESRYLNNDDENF
In words: NAPE-PLD inhibition. The experiment is classed as biochemical. As to conditions: 10 µM. The procedure: Full length human cDNA NAPE-PLD was obtained from Natsuo Ueda[58] and cloned into mammalian expression vector pcDNA3.1, containing a C-terminal Flag-tag and genes for ampicillin and neomycin resistance. All plasmids were grown in XL-10 Z-competent cells and prepped (Maxi Prep, Qiagen). Sequence analysis for the confirmation of the sequences was performed at the Leiden Genome Technology Centre.
HEK293T cells (source: Dutch Cancer Institute) were cultured at 37 °C and 7% CO2 in DMEM with glutamax, penicillin (100 μg ml^−1), streptomycin (100 μg ml^−1) and 10% New Born Calf Serum iron supplemented (Hyclone SH30072.03). Cells were passaged twice a week to appropriate confluence. Twenty-four hours before transfection 10^7 cells were seeded on a 15 cm dish. Two hours before transfection, the medium was refreshed. Transfection is performed with PEI in a ratio of 3:1 with human NAPE-PLD or Mock pcDNA3.1Neo, 20 μg per dish. Medium is refreshed after 24 h and cells are harvested after 72 h. Cell suspensions are centrifuged at 1,000g for 10 min, supernatant removed and pellets frozen at −80 °C until further use.
Cell pellets are re-suspended in lysis buffer 1: 20 mM Hepes, 2 mM DTT, 0.25 M sucrose, 1 mM MgCl2, 2.5 U ml^−1 benzonase and incubated 30 min on ice. The cytosolic fraction (supernatant) is separated from the membranes by ultra-centrifugation (32,000 rpm for 30 min 100,000g). The pellet is resuspended in buffer 2: 20 mM Hepes, 2 mM DTT (membrane fraction). All samples are stored at −80 °C. Enzyme concentrations are determined using a Bradford assay.
The membrane protein fraction from transient overexpression of NAPE-PLD in HEK293T cells was diluted to 0.4 mg ml^−1 in assay buffer: 50 mM Tris-HCl (pH 7.5), 0.02% Triton X-100, 150 mM NaCl (ref. [60]). […] Relevant concentrations of compounds are prepared in DMSO. The assay is performed in a dark Greiner 96-well plate, end volume 100 μl. The compound or DMSO is incubated with membrane protein lysate (final concentration 0.04 mg ml^−1) for 30 min at 37 °C. A sample without membrane protein lysate is incorporated for background subtraction. Then, substrate is added (final concentration 1 μM) and the measurement is started immediately on a TECAN infinite M1000 pro at 37 °C (excitation 485 nm, emission 535 nm), scanning every 2 min for 1 h.

A further experiment has as its target T5, hDAGL-α (Homo sapiens, UniProt Q9Y4D2).
T5 construct: expressed in transfected cells; host or cells: HEK293T (transient), membrane preparation
T5 sequence (Q9Y4D2 1-1042): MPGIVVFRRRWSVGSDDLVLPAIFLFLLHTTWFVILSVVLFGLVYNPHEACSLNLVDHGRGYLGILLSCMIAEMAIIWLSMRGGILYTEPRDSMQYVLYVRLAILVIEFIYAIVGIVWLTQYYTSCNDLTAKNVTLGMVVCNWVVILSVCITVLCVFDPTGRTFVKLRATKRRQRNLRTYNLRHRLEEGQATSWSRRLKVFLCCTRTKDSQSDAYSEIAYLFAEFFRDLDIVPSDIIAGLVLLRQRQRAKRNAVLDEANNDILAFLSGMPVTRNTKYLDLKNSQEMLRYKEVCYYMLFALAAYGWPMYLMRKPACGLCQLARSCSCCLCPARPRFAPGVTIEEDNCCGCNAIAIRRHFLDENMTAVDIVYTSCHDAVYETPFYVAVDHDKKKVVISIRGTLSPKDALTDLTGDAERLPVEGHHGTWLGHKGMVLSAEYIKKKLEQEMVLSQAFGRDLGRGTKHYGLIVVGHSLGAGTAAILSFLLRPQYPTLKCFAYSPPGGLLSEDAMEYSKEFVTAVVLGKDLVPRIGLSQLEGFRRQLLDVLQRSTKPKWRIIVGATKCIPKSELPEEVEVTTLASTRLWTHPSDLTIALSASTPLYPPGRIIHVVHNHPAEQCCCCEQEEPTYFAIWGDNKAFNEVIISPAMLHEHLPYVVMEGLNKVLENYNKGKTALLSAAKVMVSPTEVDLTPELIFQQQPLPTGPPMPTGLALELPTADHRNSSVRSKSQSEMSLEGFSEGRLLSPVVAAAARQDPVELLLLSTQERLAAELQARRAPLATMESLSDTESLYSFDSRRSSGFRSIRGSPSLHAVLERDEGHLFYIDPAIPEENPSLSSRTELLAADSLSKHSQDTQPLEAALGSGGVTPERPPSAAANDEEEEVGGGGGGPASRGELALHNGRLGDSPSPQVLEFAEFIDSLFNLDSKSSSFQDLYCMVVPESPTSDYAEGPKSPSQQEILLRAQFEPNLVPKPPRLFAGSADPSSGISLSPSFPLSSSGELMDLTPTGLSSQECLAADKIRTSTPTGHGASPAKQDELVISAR
In words: Biochemical DAGLα activity assay. As to conditions: 10 µM. The procedure: (§1) Cell culture and membrane preparation were performed as previously described. HEK293T cells (source: Dutch Cancer Institute) were grown in DMEM with stable glutamine and phenolred (PAA), 10% New Born Calf serum, penicillin and streptomycin. Cells were passaged every 2–3 days by resuspending in medium and seeding them to appropriate confluence. Membranes were prepared from transiently transfected HEK293T cells. One day prior to transfection 10^7 cells were seeded in a 15 cm petri dish. Cells were transfected by the addition of a 3:1 mixture of polyethyleneimine (60 μg) and plasmid DNA (20 μg) in 2 ml serum-free medium. The medium was refreshed after 24 h, and after 72 h the cells were harvested by suspending them in 20 ml medium. The suspension was centrifuged for 10 min at 1000, rpm, and the supernatant was removed. The cell pellet was stored at −80 °C until use. Cell pellets were thawed on ice and suspended in lysis buffer A (20 mM HEPES, 2 mM DTT, 0.25 M sucrose, 1 mM MgCl2, […] Benzonase). The suspension was homogenized by polytrone (3 × 7 s) and incubated for 30 min on ice. The suspension was subjected to ultracentrifugation (100,000 × g, 30 min, 4 °C, Beckman Coulter, Type Ti70 rotor) to yield the cytosolic fraction in the supernatant and the membrane fraction as a pellet. The pellet was resuspended in lysis buffer B (20 mM HEPES, 2 mM DTT). The protein concentration was determined with Quick Start Bradford assay (Biorad). The protein fractions were diluted to a total protein concentration of 1 mg ml^−1 and stored in small aliquots at −80 °C until use.
hDAGL-α activity was measured by the extent of the hydrolysis of para-nitrophenylbutyrate (PNP-butyrate) by membrane preparations from HEK293T cells (source: Dutch Cancer Institute) transiently transfected with hDAGL-α (ref. [43]). Percentage of inhibition of reference ligands was determined in comparison with an untreated control. Reactions were performed in 50 mM pH 7.2 HEPES buffer with 0.05 μg μl^−1 final protein concentration hDAGL-α transfected protein.

A further experiment has as its target T6, MAGL (Homo sapiens, UniProt Q99685).
T6 construct: expressed in transfected cells; host or cells: HEK293T (transient), membrane preparation
T6 sequence (Q99685 1-303): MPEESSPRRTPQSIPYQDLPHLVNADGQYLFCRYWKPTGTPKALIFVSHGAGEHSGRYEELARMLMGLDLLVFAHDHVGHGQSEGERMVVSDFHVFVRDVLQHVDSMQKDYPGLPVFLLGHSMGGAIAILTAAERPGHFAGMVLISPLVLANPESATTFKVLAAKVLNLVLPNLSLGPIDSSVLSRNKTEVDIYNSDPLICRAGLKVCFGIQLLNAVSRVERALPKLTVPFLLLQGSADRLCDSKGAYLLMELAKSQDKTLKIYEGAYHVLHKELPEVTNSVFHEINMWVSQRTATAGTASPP
The experiment can be described thus: Biochemical MAGL activity assay. As to conditions: 10 µM. The procedure:
as §1
Percentage of inhibition of reference ligands was determined in comparison with an untreated control. […] Fluorescence was measured in 5 min intervals for 60 min.

The next experiment addresses T7, Rat recombinant TRPM8 (Rattus norvegicus, UniProt Q8R455).
T7 construct: expressed in transfected cells; host or cells: HEK293 (TRPM8-HEK-293, gift from Mario van der Stelt)
The experiment can be described thus: TRP channel [Ca2+]i assay. As to conditions: agonist. Type of experiment: cell-based.

T7 sequence (Q8R455 whole entry): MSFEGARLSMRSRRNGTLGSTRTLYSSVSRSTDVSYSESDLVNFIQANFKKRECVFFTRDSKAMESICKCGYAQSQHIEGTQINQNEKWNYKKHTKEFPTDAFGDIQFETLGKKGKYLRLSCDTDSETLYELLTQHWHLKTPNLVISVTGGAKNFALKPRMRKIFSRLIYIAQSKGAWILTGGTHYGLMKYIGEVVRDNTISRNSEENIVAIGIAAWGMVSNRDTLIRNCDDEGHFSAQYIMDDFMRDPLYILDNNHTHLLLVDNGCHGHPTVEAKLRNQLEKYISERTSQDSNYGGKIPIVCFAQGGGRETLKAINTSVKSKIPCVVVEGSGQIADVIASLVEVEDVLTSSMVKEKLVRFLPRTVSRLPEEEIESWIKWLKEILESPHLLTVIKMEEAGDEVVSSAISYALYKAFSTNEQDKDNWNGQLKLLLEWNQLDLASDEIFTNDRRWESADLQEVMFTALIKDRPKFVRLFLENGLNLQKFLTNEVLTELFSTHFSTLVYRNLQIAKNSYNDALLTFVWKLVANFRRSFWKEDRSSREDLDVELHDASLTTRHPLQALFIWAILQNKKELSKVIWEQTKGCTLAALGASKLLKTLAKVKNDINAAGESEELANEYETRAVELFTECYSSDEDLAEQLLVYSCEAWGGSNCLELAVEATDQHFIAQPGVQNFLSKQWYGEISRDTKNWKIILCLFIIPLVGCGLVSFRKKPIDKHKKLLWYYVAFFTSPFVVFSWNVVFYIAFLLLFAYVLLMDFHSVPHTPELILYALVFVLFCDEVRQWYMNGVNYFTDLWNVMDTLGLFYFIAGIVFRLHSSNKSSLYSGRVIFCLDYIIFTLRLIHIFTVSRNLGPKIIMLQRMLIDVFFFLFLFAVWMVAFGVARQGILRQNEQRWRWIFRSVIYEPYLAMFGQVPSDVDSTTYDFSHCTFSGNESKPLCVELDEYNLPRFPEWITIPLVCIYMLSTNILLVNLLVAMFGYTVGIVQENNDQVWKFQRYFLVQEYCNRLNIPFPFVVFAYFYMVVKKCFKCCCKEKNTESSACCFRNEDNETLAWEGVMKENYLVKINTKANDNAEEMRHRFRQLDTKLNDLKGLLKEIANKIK

In the case of `CCCCC/C=C\C/C=C\C/C=C\C/C=C\CCCC(=O)NCc1ccoc1` [UCM707], the “AEA cellular uptake inhibition, positive controls” value in experiment [1] is 71.5±8.0%.
`CCCCCCCCCC(=O)O[C@@H]1[C@@H](C)[C@@]2(O)[C@@H](C=C(CO)C[C@@]3(O)C(=O)C(C)=C[C@@H]23)[C@@H]2C(C)(C)[C@]12OC(=O)CCCCCCCCC` [4α-PDD, 4α-phorbol 12,13-didecanoate]: at Rat recombinant TRPV4, the “TRPV4 Efficacy (% ionomycin 4μM)” value was 51.9±1.7%. For the same compound, at Rat recombinant TRPV4 (read-out: TRPV4 Potency EC50), the EC50 turned out to be 0.46 ± 0.07 µM.
As for `CCCCCCCC/C=C\CCCCCCCC(=O)N[C@@H](CO)Cc1ccc(O)cc1` [OMDM-2], in experiment [1], the “AEA cellular uptake inhibition, positive controls” value is on record as 59.7±6.6%.
In the case of `Cc1ccc(C(C)C)c(O)c1` [thymol], the “TRPV3 Efficacy (% ionomycin 4μM)” value at Rat recombinant TRPV3 stood at 34.7±0.2%. Also, the EC50 at Rat recombinant TRPV3 (read-out: TRPV3 Potency EC50) came out at 84.1 ± 1.6 µM.
For lysophosphatidylcholine [LPC], the “TRPV2 Efficacy (% ionomycin 4μM)” value on Rat recombinant TRPV2 is reported as 91.7±0.5%. Besides, on Rat recombinant TRPV2 (read-out: TRPV2 Potency EC50), the EC50 is 3.4 ± 0.02 µM.
For `CCCCCc1cc(O)c2c(c1)OC(C)(C)[C@@H]1CCC(C)=C[C@@H]21` [Δ9-THC, Δ^9-tetrahydrocannabinol], at human NAPE-PLD, the “NAPE-PLD % inhibition at 10 µM ± SD” value is given as 0 ± 12%. Moreover, the “DAGL % inhibition at 10 µM ± SD” value at hDAGL-α is -9 ± 12%. Moreover, the “MAGL % inhibition at 10 µM ± SD” value on MAGL stood at 7 ± 17%.
As to `O=C1NC(c2cccc([N+](=O)[O-])c2)=CCN1c1ccccc1O` [icilin], on Rat recombinant TRPM8, the TRPM8 efficacy is reported as 75.1±1.1. The EC50 at Rat recombinant TRPM8 (read-out: TRPM8 potency EC50) amounted to 0.11 ± 0.01 µM.
